Counter-ions that a name gives are not always drawn. Like-named read-outs stand apart in the source and are kept apart here.
Experiments:
DAT [1] = details: read-out: IC50 as DAT reuptake inhibitor; 3,4-dichloro-α-PVP series; cited from earlier work
DAT [2] = biological target: DAT (Rattus norvegicus, UniProt P23977); assay: Inhibition of [3H]dopamine uptake in rat caudate synaptosomes; format: biochemical; details: for Fold decrease in DAT potency relative to comparator compound: 8 vs 7, 15 vs 9, 16 vs 7, 17 vs 10
[3] = read-out: IC50, nM (SD), inhibition at DAT, 5 nM [3H]dopamine uptake, rat caudate synaptosomes, mean ± SD, n = 3

DAT (Rattus norvegicus, UniProt P23977), sequence (P23977 whole entry): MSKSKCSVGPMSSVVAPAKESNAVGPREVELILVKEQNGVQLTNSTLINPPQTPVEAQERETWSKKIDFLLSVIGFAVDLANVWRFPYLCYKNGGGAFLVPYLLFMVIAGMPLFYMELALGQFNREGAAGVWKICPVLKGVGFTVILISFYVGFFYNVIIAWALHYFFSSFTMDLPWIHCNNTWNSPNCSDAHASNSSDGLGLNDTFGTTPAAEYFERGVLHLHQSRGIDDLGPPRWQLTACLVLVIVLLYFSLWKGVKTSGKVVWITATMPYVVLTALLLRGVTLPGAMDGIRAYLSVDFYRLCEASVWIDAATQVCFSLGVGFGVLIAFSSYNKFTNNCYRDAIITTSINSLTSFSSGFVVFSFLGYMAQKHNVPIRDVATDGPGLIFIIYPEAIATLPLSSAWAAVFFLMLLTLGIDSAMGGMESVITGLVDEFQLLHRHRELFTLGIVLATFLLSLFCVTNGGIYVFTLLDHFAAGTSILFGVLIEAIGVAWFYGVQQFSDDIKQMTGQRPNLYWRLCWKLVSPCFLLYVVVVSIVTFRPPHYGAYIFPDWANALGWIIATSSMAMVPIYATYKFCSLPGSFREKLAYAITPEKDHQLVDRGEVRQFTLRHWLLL

| SMILES | IC50 (DAT [2]; [3]) [nM] | IC50 (DAT [2]) [nM] | also measured |
| --- | --- | --- | --- |
| CCCC(C(=O)c1ccc(Cl)c(Cl)c1)N1CCCC1 (stereo not drawn) [3,4-dichloro-α-PVP] | – | – | IC50 (DAT [1]): 43 nM |
| CCCC(C(=O)c1ccccc1)N1CCCC1 (stereo not drawn) [compound 7, α-Pyrrolidinovalerophenone, reference compound] | 17.5 | – | – |
| O=C(CN1CCCC1)c1ccccc1.O=C(O)C(=O)O [compound 8, 2-(1-Pyrolidinyl)-1-acetophenone Oxalate] | 3250 | – | Fold decrease in DAT potency relative to comparator compound (DAT [2]): 185 fold |
| CC(C)C(C(=O)c1ccccc1)N1CCCC1 (centres unmarked) [compound 11] | 92.3 | – | – |
| CCCCC(C(=O)c1ccccc1)N1CCCC1 (centres unmarked) [compound 12, 1-Phenyl-2-(pyrrolidin-1-yl)hexanone Oxalate] | 11.6 | – | – |
| O=C(c1ccccc1)C(C1CCCC1)N1CCCC1 (centres unmarked) [compound 13, 2-Cyclopentyl-1-phenyl-2-(pyrrolidin-1-yl)ethanone Hydrochloride] | – | 17.1 | – |
| O=C(c1ccccc1)C(C1CCCCC1)N1CCCC1 (centres unmarked) [compound 14, 2-Cyclohexyl-1-phenyl-2-(pyrrolidin-1-yl)ethanone Hydrochloride] | – | 8.3 | – |
| CCCC(C(=O)c1ccccc1)N1CCCCC1 (centres unmarked) [compound 16, 1-Phenyl-2-(piperidin-1-yl)pentan-1-one Hydrochloride] | – | 128 | – |
| O=C(O)C(=O)O.O=C1c2ccccc2CCC1N1CCCC1 (centres unmarked) [compound 17, 2-(Pyrrolidin-1-yl)-3,4-dihydronaphthalen-1(2H)-one Oxalate] | – | 12900 | Fold decrease in DAT potency relative to comparator compound (DAT [2]): 200 fold |

From publication PMC5349767 (ACS chemical neuroscience, 2015)
